# Read-outs that look alike come from different tables or passages of the source.
# [1] = CYP2D6 Extensive/Ultra Metabolizer
# [2] = Drug Titration Period (first 42 days)
# [3] = treatment-emergent AE, total follow-up
smiles,measurement,setting,value
"COCCc1ccc(OCC(O)CNC(C)C)cc1 (stereo not drawn) [metoprolol, metoprolol succinate, reference compound]","HEADACHE, % of patients",[1],(4.5%)
same,"HEADACHE, number of patients",[1],5
same,"HYPOTENSION, % of patients",[1],(8.1%)
same,"HYPOTENSION, number of patients",[1],9
same,"IMMUNE SYSTEM DISORDERS, % of patients",[1],(0.9%)
same,"IMMUNE SYSTEM DISORDERS, number of patients",[1],1
same,"INFECTIONS AND INFESTATIONS, % of patients",[1],(20.7%)
same,"INFECTIONS AND INFESTATIONS, number of patients",[1],23
same,"INFLUENZA, % of patients",[1],(2.7%)
same,"INFLUENZA, number of patients",[1],3
same,"HEADACHE, % of patients",CYP2D6 Poor Metabolizer,(0.0%)
same,"HEADACHE, number of patients",CYP2D6 Poor Metabolizer,0
same,"INFECTIONS AND INFESTATIONS, % of patients",CYP2D6 Poor Metabolizer,(12.5%)
same,"INFECTIONS AND INFESTATIONS, number of patients",CYP2D6 Poor Metabolizer,1
same,"INFLUENZA, % of patients",CYP2D6 Poor Metabolizer,(0.0%)
same,"INFLUENZA, number of patients",CYP2D6 Poor Metabolizer,0
same,"UPPER RESPIRATORY TRACT INFECTION, % of patients",CYP2D6 Poor Metabolizer,(0.0%)
same,"UPPER RESPIRATORY TRACT INFECTION, number of patients",CYP2D6 Poor Metabolizer,0
same,"AC mortality or CV hosp or treatment disc. due to AE, patients N (%)",[2],6 (5%)
same,"All-cause mortality, patients N (%)",[2],1 (1%)
same,AEs leading to study withdrawal (excluding death),"GENETIC-AF, all randomized patients",1.5%
same,"Adverse event leading to death, patients N (%)",Total Study On-Drug Period,2.3%
same,"Adverse events leading to study withdrawal (excluding death), patients N (%)",Total Study On-Drug Period,2 (1.5%)
same,"Adverse event leading to death, patients N (%)","Total Study On-Drug Period, listed as Metoprolol",3 (2.3%)
same,AE SOC frequency: Cardiac Disorders,"human, in vivo",26.3%
same,AE SOC frequency: Eye Disorders,"human, in vivo",3.0%
same,AE SOC frequency: Gastrointestinal Disorders,"human, in vivo",18.0%
same,AE SOC frequency: Hepatobiliary Disorders,"human, in vivo",2.3%
same,AE SOC frequency: Infections and Infestations,"human, in vivo",21.8%
same,AE SOC frequency: Investigators,"human, in vivo",7.5%
same,AE SOC frequency: Metabolism and Nutrition Disorders,"human, in vivo",12.0%
same,AE SOC frequency: Musculoskeletal and Connective Tissue Disorders,"human, in vivo",15.0%
same,AE SOC frequency: Neoplasms Benign Malignant and Unspecified,"human, in vivo",6.8%
same,AE SOC frequency: Renal and Urinary Disorders,"human, in vivo",9.8%
same,"AE SOC frequency: Respiratory, Thoracic and Mediastinal Disorders","human, in vivo",10.5%
same,AE frequency: arthralgia,"human, in vivo",3.8%
same,AE frequency: cardiac failure,"human, in vivo",3.8%
same,AE frequency: chronic kidney disease,"human, in vivo",0.8%
same,AE frequency: constipation,"human, in vivo",1.5%
same,AE frequency: epistaxis,"human, in vivo",0.0%
same,AE frequency: hematuria,"human, in vivo",0.0%
same,AE frequency: hypomagnesaemia,"human, in vivo",0.0%
same,AE frequency: hypotension,"human, in vivo",7.5%
same,AE frequency: pneumonia,"human, in vivo",0.8%
same,AE frequency: upper respiratory tract infection,"human, in vivo",4.5%
same,AEs leading to permanent study drug discontinuation,"human, in vivo",8.3%
same,AEs: Bradycardia,"human, in vivo",12.0%
same,AEs: Stroke (99% on OACs),"human, in vivo",0.0%
same,"Adverse event possible/probably related to study drug, patients N (%)","human, in vivo",40 (30.1%)
same,"Adverse events leading to permanent study drug discontinuation, patients N (%)","human, in vivo",11 (8.3%)
same,"Adverse events related to neoplasm, patients N (%)","human, in vivo",9 (6.8%)
same,"Any bradycardia event, % of patients","human, in vivo",(12%)
same,"Any bradycardia event, number of patients","human, in vivo",16
same,"Any bradycardia, % of patients","human, in vivo",(12%)
same,"Any bradycardia, number of patients","human, in vivo",16
same,"Any serious adverse event, % of patients","human, in vivo",(20%)
same,"Any serious adverse event, number of patients","human, in vivo",26
same,"Asymptomatic bradycardia event, % of patients","human, in vivo",(8%)
same,"Asymptomatic bradycardia event, number of patients","human, in vivo",10
same,"Asymptomatic bradycardia, % of patients","human, in vivo",(8%)
same,"Asymptomatic bradycardia, number of patients","human, in vivo",10
same,Bradycardia AEs,"human, in vivo",3 (38%)
same,"Bradycardia event leading to study drug discontinuation, % of patients","human, in vivo",(1%)
same,"Bradycardia event leading to study drug discontinuation, number of patients","human, in vivo",1
same,"Bradycardia event leading to study drug dose interruption, % of patients","human, in vivo",(2%)
same,"Bradycardia event leading to study drug dose interruption, number of patients","human, in vivo",2
same,"Bradycardia event leading to study drug dose reduction, % of patients","human, in vivo",(8%)
same,"Bradycardia event leading to study drug dose reduction, number of patients","human, in vivo",11
same,"CAD, % of patients","human, in vivo",(1%)
same,"CAD, number of patients","human, in vivo",1
same,Cardiac AE rate (heart failure or bradycardia events),"human, in vivo",50%
same,"Cardiovascular serious adverse event, % of patients","human, in vivo",(10%)
same,"Cardiovascular serious adverse event, number of patients","human, in vivo",13
same,"Catheterization, % of patients","human, in vivo",(1%)
same,"Catheterization, number of patients","human, in vivo",1
same,"EPISTAXIS, % of patients","human, in vivo",(0.0%)
same,"EPISTAXIS, number of patients","human, in vivo",0
same,"HAEMATURIA, % of patients","human, in vivo",(0.0%)
same,"HAEMATURIA, number of patients","human, in vivo",0
same,"HYPOMAGNESAEMIA, % of patients","human, in vivo",(0.0%)
same,"HYPOMAGNESAEMIA, number of patients","human, in vivo",0
same,"Heart block (Mobitz I/II, 2:1, or 3rd degree), % of patients","human, in vivo",(0%)
same,"Heart block (Mobitz I/II, 2:1, or 3rd degree), number of patients","human, in vivo",0
same,"ICD Implantation, % of patients","human, in vivo",(5%)
same,"ICD Implantation, number of patients","human, in vivo",7
same,"Incidence of Cr > 3.0, % of patients","human, in vivo",(1%)
same,"Incidence of Cr > 3.0, number of patients","human, in vivo",1
same,"Incidence of bilirubin > 2.0, % of patients","human, in vivo",(2%)
same,"Incidence of bilirubin > 2.0, number of patients","human, in vivo",2
same,"Non-CNS Embolism, % of patients","human, in vivo",(0%)
same,"Non-CNS Embolism, number of patients","human, in vivo",0
same,"Pacemaker Implantation, % of patients","human, in vivo",(2%)
same,"Pacemaker Implantation, number of patients","human, in vivo",3
same,SAE SOC frequency: Infections and Infestations,"human, in vivo",3.0%
same,SAE SOC frequency: Renal and Urinary Disorders,"human, in vivo",1.5%
same,"SAE SOC frequency: Respiratory, Thoracic and Mediastinal Disorders","human, in vivo",1.5%
same,SAE frequency: Cardiac Failure,"human, in vivo",2.3%
same,SAE frequency: Cardiac Failure Congestive,"human, in vivo",5.3%
same,SAEs: Any cardiovascular event,"human, in vivo",9.8%
same,"Stroke, % of patients","human, in vivo",(0%)
same,"Stroke, number of patients","human, in vivo",0
same,"Symptomatic bradycardia event, % of patients","human, in vivo",(5%)
same,"Symptomatic bradycardia event, number of patients","human, in vivo",7
same,"Symptomatic bradycardia, % of patients","human, in vivo",(5%)
same,"Symptomatic bradycardia, number of patients","human, in vivo",7
same,"TIA, % of patients","human, in vivo",(1%)
same,"TIA, number of patients","human, in vivo",1
same,"UPPER RESPIRATORY TRACT INFECTION, % of patients","human, in vivo",(4.5%)
same,"UPPER RESPIRATORY TRACT INFECTION, number of patients","human, in vivo",5
same,"All-cause hospitalization, patients N (%)","human, in vivo, 42 days",9 (7%)
same,"Any serious adverse event, patients N (%)","human, in vivo, 42 days",10 (8%)
same,"Asymptomatic bradycardia, patients N (%)","human, in vivo, 42 days",4 (3%)
same,"Cardiovascular hospitalization, patients N (%)","human, in vivo, 42 days",4 (3%)
same,"Heart failure hospitalization, patients N (%)","human, in vivo, 42 days",4 (3%)
same,"Symptomatic bradycardia, patients N (%)","human, in vivo, 42 days",3 (2%)
same,"Treatment-related cardiovascular serious adverse event, patients N (%)","human, in vivo, 42 days",0 (0%)
same,"Treatment-related serious adverse event, patients N (%)","human, in vivo, 42 days",0 (0%)
same,"Ablation, % of patients",in vivo,(14%)
same,"Ablation, number of patients",in vivo,18
same,"Additional ECV After Successful SR, % of patients",in vivo,(23%)
same,"Additional ECV After Successful SR, number of patients",in vivo,30
same,"Anti-Arrhythmic Therapy, % of patients",in vivo,(33%)
same,"Anti-Arrhythmic Therapy, number of patients",in vivo,44
same,"Appropriate Firing of on ICD, % of patients",in vivo,(1%)
same,"Appropriate Firing of on ICD, number of patients",in vivo,1
same,"Rate Control Therapy, % of patients",in vivo,(11%)
same,"Rate Control Therapy, number of patients",in vivo,15
same,"TIA, patients",in vivo,One
same,"HEADACHE, % of patients",[3],(3.8%)
same,"HEADACHE, number of patients",[3],5
same,"INFECTIONS AND INFESTATIONS, % of patients",[3],(21.8%)
same,"INFECTIONS AND INFESTATIONS, number of patients",[3],29
same,"INFLUENZA, % of patients",[3],(2.3%)
same,"INFLUENZA, number of patients",[3],3
same,"UPPER RESPIRATORY TRACT INFECTION, % of patients",[3],(4.5%)
same,"UPPER RESPIRATORY TRACT INFECTION, number of patients",[3],6
same,"INFECTIONS AND INFESTATIONS, % of patients",treatment-emergent serious AE,(3.0%)
same,"INFECTIONS AND INFESTATIONS, number of patients",treatment-emergent serious AE,4
